Measured values reported in patent US20230217925A1, “FENCLORIM SEED TREATMENT AS A BIOSTIMULANT” (THE BOARD TRUSTEES OF THE UNIVERSITY OF ARKANSAS, priority 2022, published 2023).

Tests used:
Format in all cases: in vivo
[1] = test system: four rice cultivars (Diamond, Titan, RT7521FP, and RT7321FP); test: Fenclorim dose-response study, results over all four cultivars; settings: for Increase over control % (groundcover): averaged over all four cultivars, 45 days after emergence
Procedure: (§1) On Apr. 17, 2021, an experiment was initiated to identify the best rate at which to apply fenclorim as a rice seed treatment. The experiment was conducted using four rice cultivars (Diamond, Titan, RT7521FP, and RT7321FP) and 5 rates of the fenclorim (0, 0.625, 1.25, 2.5, and 5 g/kg seed). Seeds were treated using the aforementioned methods with all seeds having the same base seed treatment. […] At 2.5 g fenclorim per kg of seed, there was a 22% increase (averaged across cultivars) in groundcover compared to the no fenclorim treatment at 45 days after emergence. In this study, rice plant heights and shoot numbers were measured 30 days after emergence. The heights of five random plants were measured per plot and shoot numbers were measured in two 0.5 m sections of row.

Diamond rice = Diamond rice evaluation in heavy clay soil, drone image groundcover; settings: 2.5 g fenclorim per kg of seed vs 0, 45 days after emergence
Procedure: (§2) An experiment was conducted to screen for the effects of a fenclorim seed treatment across sixteen of the most common rice cultivars planted in the state of Arkansas. The cultivars screened in the study included ten long-grain inbreds, three medium-grain inbreds, and three long-grain hybrids: ‘Diamond’, ‘Jewel’, ‘DG363L’, ‘CLL 15’, ‘CLL 16’, ‘CLL 17’, ‘PVL02’, ‘PVL03’, ‘RTV7231MA’, ‘CLJ 01’, ‘Jupiter’, ‘Titan’, ‘Lynx’, ‘RT753XP’, ‘RT7321FP’, and ‘RT7521FP’. All seeds were treated with a base treatment comprising a standard rice insecticide (i.e., NipsIt®) and fungicide (i.e., a combination of metalaxyl, fludioxonil, carboxin, and thiram) using a commercial seed treater. Additionally, each seed was treated with 0 or 2.5 g fenclorim per kg of seed. Seed was planted on Apr. 19, 2021, utilizing nine-row plots (5.2 m by 3 m). Aerial images were captured using a DJI Mavic Air 2 45 days after emergence, and images were analyzed using Turf Analyzer.
An experiment was conducted to test whether fenclorim seed treatment would influence rice growth in a heavy clay soil. Diamond rice was planted on Apr. 22, 2021, using the same practices as the previous experiment, including a treatment with 0 or 2.5 g fenclorim per kg of seed.

rice cultivar Diamond = test: Fenclorim dose-response study, seed treatment (groundcover, shoot numbers); settings: for Shoots (%), percentage of shoot numbers produced by control plants: 30 days after emergence; for Groundcover (%): 45 days after emergence
Procedure: as §1

rice cultivar RT7521FP = test: as above; settings: for Shoots (%), percentage of shoot numbers produced by control plants: 30 days after emergence; for Groundcover (%): 45 days after emergence
Procedure: as §1

rice cultivar Titan = test: as above; settings: for Shoots (%), percentage of shoot numbers produced by control plants: 30 days after emergence; for Groundcover (%): 45 days after emergence
Procedure: as §1

rice cultivar RT7321FP = test: as above; settings: for Shoots (%), percentage of shoot numbers produced by control plants: 30 days after emergence; for Groundcover (%): 45 days after emergence
Procedure: as §1

[2] = test system: rice seeds of the cultivar Diamond; test: Greenhouse biostimulant experiment; settings: 2.5 g/kg of seed vs 0, 30 days after emergence, silt loam soil
Procedure: A greenhouse biostimulant experiment was performed in 2 experimental runs. Fenclorim was applied to rice seed at 0 or 2.5 g/kg of seed. Five rice seeds of the cultivar Diamond were planted in silt loam soil in 4″ diameter pots 0.5″ apart. At least 9 replications were performed per run. At 14 days after emergence, emerged rice was counted and thinned to 3 plants per pot. Data were collected 30 days after emergence. The leaf area of the rice plants in each pot was determined. Groundcover was determined based on the number of green leaf pixels from an overhead image. Shoot (aboveground) and root (belowground) biomass were determined, and total biomass was determined by adding the mass of the roots and shoots.

[3] = test system: sixteen of the most common rice cultivars planted in the state of Arkansas; test: Cultivar screening, fenclorim seed treatment, field plots, aerial image groundcover; settings: 2.5 g fenclorim per kg of seed vs 0; 45 days after emergence; averaged across all cultivars
Procedure: as §2

Compound: Clc1cc(Cl)nc(-c2ccccc2)n1 [fenclorim, 4,6-dichloro-2-phenylpyrimidine]
- rice plant heights ([1]; 0.625-5 g/kg seed vs 0, 30 days after emergence, five random plants per plot): not influenced
- shoot number, effect as the seed treatment rate increased ([1]; 0.625-5 g/kg seed vs 0, 30 days after emergence, two 0.5 m sections of row): an increase in shoot number was observed
- Increase over control % (groundcover) ([1]; 0.625 g/kg seed): 12%
- Increase over control % (groundcover) ([1]; 1.25 g/kg seed): 18%
- Increase over control % (groundcover) ([1]; 2.5 g/kg seed): 22%
- Increase over control % (groundcover) ([1]; 5.0 g/kg seed): 23%
- increase in groundcover (Diamond rice): 4%
- Shoots (%), percentage of shoot numbers produced by control plants (rice cultivar Diamond; 0.625 g/kg seed): 98.6%
- Groundcover (%) (rice cultivar Diamond; 0.625 g/kg seed): 47.3%
- Shoots (%), percentage of shoot numbers produced by control plants (rice cultivar Diamond; 1.25 g/kg seed): 111.1%
- Groundcover (%) (rice cultivar Diamond; 1.25 g/kg seed): 54.6%
- Shoots (%), percentage of shoot numbers produced by control plants (rice cultivar Diamond; 2.5 g/kg seed): 106.9%
- Groundcover (%) (rice cultivar Diamond; 2.5 g/kg seed): 54.2%
- Shoots (%), percentage of shoot numbers produced by control plants (rice cultivar Diamond; 5.0 g/kg seed): 100%
- Groundcover (%) (rice cultivar Diamond; 5.0 g/kg seed): 52.2%
- Shoots (%), percentage of shoot numbers produced by control plants (rice cultivar RT7521FP; 0.625 g/kg seed): 110.7%
- Groundcover (%) (rice cultivar RT7521FP; 0.625 g/kg seed): 51.8%
- Shoots (%), percentage of shoot numbers produced by control plants (rice cultivar RT7521FP; 1.25 g/kg seed): 112.4%
- Groundcover (%) (rice cultivar RT7521FP; 1.25 g/kg seed): 52.5%
- Shoots (%), percentage of shoot numbers produced by control plants (rice cultivar RT7521FP; 2.5 g/kg seed): 108.8%
- Groundcover (%) (rice cultivar RT7521FP; 2.5 g/kg seed): 51.2%
- Shoots (%), percentage of shoot numbers produced by control plants (rice cultivar RT7521FP; 5.0 g/kg seed): 111.9%
- Groundcover (%) (rice cultivar RT7521FP; 5.0 g/kg seed): 55.9%
- Shoots (%), percentage of shoot numbers produced by control plants (rice cultivar Titan; 0.625 g/kg seed): 111.1%
- Groundcover (%) (rice cultivar Titan; 0.625 g/kg seed): 49.3%
- Shoots (%), percentage of shoot numbers produced by control plants (rice cultivar Titan; 1.25 g/kg seed): 110.5%
- Groundcover (%) (rice cultivar Titan; 1.25 g/kg seed): 47.3%
- Shoots (%), percentage of shoot numbers produced by control plants (rice cultivar Titan; 2.5 g/kg seed): 105.3%
- Groundcover (%) (rice cultivar Titan; 2.5 g/kg seed): 48.1%
- Shoots (%), percentage of shoot numbers produced by control plants (rice cultivar Titan; 5.0 g/kg seed): 102.4%
- Groundcover (%) (rice cultivar Titan; 5.0 g/kg seed): 50.6%
- Shoots (%), percentage of shoot numbers produced by control plants (rice cultivar RT7321FP; 0.625 g/kg seed): 115.2%
- Groundcover (%) (rice cultivar RT7321FP; 0.625 g/kg seed): 41.2%
- Shoots (%), percentage of shoot numbers produced by control plants (rice cultivar RT7321FP; 1.25 g/kg seed): 110.3%
- Groundcover (%) (rice cultivar RT7321FP; 1.25 g/kg seed): 46.0%
- Shoots (%), percentage of shoot numbers produced by control plants (rice cultivar RT7321FP; 2.5 g/kg seed): 108.4%
- Groundcover (%) (rice cultivar RT7321FP; 2.5 g/kg seed): 53.9%
- Shoots (%), percentage of shoot numbers produced by control plants (rice cultivar RT7321FP; 5.0 g/kg seed): 112.3%
- Groundcover (%) (rice cultivar RT7321FP; 5.0 g/kg seed): 50.3%
- increase in aboveground biomass [2]: 14%
- increase in belowground biomass [2]: 63%
- increase in groundcover [2]: 15%
- increase in leaf area [2]: 23%
- increase in total biomass [2]: 40%
- increase in groundcover [3]: 7%
